Source: patent publication US20130004581A1, “CONTROLLING UPTAKE BY CELLS” (Ramot at Tel-Aviv University Ltd., priority 2010, published 2013)

Legend:
HaCaT cells = assay: Proton induced uptake (PIU) in HaCaT cells, FACS; format: cell-based, human; details: for extent of PIU of dextran-FITC compared to normal cells: 25 μM added 10 minutes prior, pH 5.2 for 10 minutes, dextran-FITC 70 kDa; for effect of actin cytoskeleton modifier on rate of PIU of dextran-FITC: latrunculin-A 1 μM, cytochalasin-B 10 μM, wortmannin 1 μM, calyculin-A 50 nM, 15 minutes before, pH 5.25 10 minutes, 70 kD dextran-FITC 5 μM
Protocol: FIG. 6 is a chart showing PIU of molecules different by size and charge, in accordance with some embodiments of the invention. Hacat cultures were exposed to solutions of pH 5.2 or pH 7.4 for 5 minutes period, in the presence of different fluorescence molecules (All at 25 μM concentration). FACS analysis results (FL1, geometrical mean±SD) for the cell cultures exposed to pH 5.2 are presented as fold induction relative to results obtained for cells exposed to pH 7.4. This can be used, in some embodiments of the invention, to assess effect of molecule size and charge on uptake.
FIGS. 7A-7B are charts showing the comparison of PIU in adherent and suspended HaCaT cells, in accordance with some embodiments of the invention. For FIG. 7A, HaCaT cells were tested either at their adherent state, or following harvest at a suspended state. […] FACS analyses (FL1) in terms of geometrical mean±SD are presented as fold induction relative to the constitutive uptake at physiological pH 7.4. n=9 in 3 independent experiments. For FIG. 7B, HaCaT Cells were cultivated at low, medium or high cell density. […] The cultures were harvested and undergone FACS analyses (FL1) in terms of geometrical mean±SD and are presented as fold induction relative to the constitutive uptake of low density cultures. Statistical significance was tested against the confluent culture, n=9 in 3 independent experiments. In the charts, * indicates a t-test p<0.05; and ** indicates a t-test p<0.01. This can be used, in some embodiments of the invention, to assess effect of cell membrane rigidity and/or tissue structure on uptake.
FIGS. 12A-12B are a chart and images which show the relative change of PIU by modifiers of actin cytoskeleton organization, in accordance with some embodiments of the invention. […].

COS 5-7 cells [1] = assay: Uptake after one minute of electric pulse train (EPT) in three-compartment device, FACS; format: cell-based, African green monkey; details: in the presence of both 2 mM SAA and 1 mM DHA
Protocol: Exposure of cells to low-intensity trains of unipolar rectangular voltage pulses was carried in a three-compartment exposure set-up where the anode and cathode were connected to an electric pulse generator (Grass S44 Stimulator). The exposure set-up consisted of a rectangular chamber made from polystyrene, 15 mm long, 10 mm wide, with 0.5 cm^2 area platinum electrodes positioned on the extreme sides (see FIG. 15). The chamber is divided by two porous membranes (PolyEtherSulfon, 0.8 μm pores, 200 μm depth), into three distinct and equal compartments: anode, cathode and center ones. The electric field parameters applied were monitored on line by recording the voltage and the current (by means of a wide band current probe, Pearson) on an oscilloscope. Typically, a cell suspension (1*10^6 cells/ml) is exposed to a train of electric pulses consisting of unipolar rectangular pulses with duration of 180 μs, frequency of 500 Hz for the total time of exposure of one minute.
Flow cytometry analysis was carried out by FACSort (Becton @ Dickson, San Jose, Calif.), employing a 488-nm argon laser excitation. […] Ten thousand cells were examined for each sample and data were collected in the list mode. The analysis of flow cytometry data was performed using WINMDI 2.9 software (Joe Trotter, The Scripps Research Institute). For each sample the geometrical mean was calculated without including PI stained cells. Cell intensity was determined as fold of induction relative to cells' constitutive uptake.

COS 5-7 cells [2] = assay: Intracellular oxidative stress (DCF fluorescence) after exposure to EPT, FACS; format: cell-based, African green monkey; details: EPT 20V/cm
Description: FIG. 18 is a chart of intracellular oxidative stress in the presence of anti-oxidants in the extracellular and the intracellular compartments, in accordance with some embodiments of the invention. The intracellular oxidative stress measured by intracellular DCF fluorescent intensity following cell exposure to electric pulse train, analyzed by FACS (488/530 nm). Results are given as folds of geometrical mean±SD relative to the level of constitutive oxidative stress. Statistical t-test results: 2 mM SAA; p<0.05, 1 mM DHA; p<0.01.
Harvested cells were incubated with H2DCF-DA (20 μM for 90 minutes 5% CO2 at 37°). Following the loading process the cells were washed once with HBSS before exposure to EPT. H2DCF-DA is a non-fluorescent form of fluorescein, passively permeating into the cell where it is cleaved by cytosolic esterase to H2DCF. It gains its fluorescent properties when oxidized into DCF. DCF intensity was analyzed by FACS using the 530/30 nm channel.
The intracellular OS level was monitored by H2DCF, a non-fluorescent probe that is oxidized by radical hydroxyls into the fluorescent DCF form. Following the cells pre-loading with H2DCF, OS levels, as monitored by intracellular DCF fluorescence intensity, are elevated only in those cells suspended and exposed to EPT in the anode compartment (20V/cm, 200 mA/cm^2). […]

COS 5-7 cells [3] = assay: Uptake after one minute of chemically induced low pH (HCl added to HBSS suspension), FACS; format: cell-based, African green monkey; details: 50 mM
Protocol: The following tables show a connection between pH and current. […] The values in the tables are shown as folds relative to the uptake in cells unexposed to any of the treatments. […] The results are expected to be substantially independent of cell type and molecule used, except for a cell-specific change and a molecule specific change.
Cells (COS 5-7) were harvested, re-suspended in DMEM (1 mg/ml glucose, 5% FCS), and incubated (37°, 5% CO2) as designated by the experiment. For uploading the cells with either H2DCF-DA (20 μM) or Bis-DHA (1 mM) incubation lasted 90 minutes. When no pre-treatments were required, the cells were kept in the DMEM for 30 minutes. Following incubation, the cells were centrifuged at 400g for 1 min, the solution aspirated, and cells re-suspended in HBSS exposure media.
Exposure of cells to pulse acidification was through the addition of HCl to the HBSS suspension for 60 seconds, terminated by the addition of a three fold larger volume of DMEM-H.
Cell suspensions were centrifuged (400g for one minute), their solutions aspirated and they were re-suspended with 0.5 ml DMEM-H supplemented with 10u/ml dextranase (Sigma-Aldrich) for 10 minutes at RT. Cells were centrifuged again; their solution aspirated and they were re-suspended with 0.2 ml DMEM-H. PI (25 μg/ml) as a label for permeabilized cells and tryphan blue (0.01% w/v) as a fluorescence quenching agent for extracellular FITC (36) were added to each sample shortly before analysis
Flow cytometry analysis was carried out by FACSort (Becton @ Dickson, San Jose, Calif.), employing a 488-nm argon laser excitation. The green fluorescence of FITC was measured via 530/30 nm filter, the red fluorescence of PI was detected via a 585/42 nm filter. […] Ten thousand cells were examined for each sample and data were collected in the list mode. The analysis of flow cytometry data was performed using WINMDI 2.9 software (Joe Trotter, The Scripps Research Institute). For each sample the geometrical mean was calculated without including PI stained cells. Cell intensity was determined as fold of induction relative to cells' constitutive uptake.
After one minute incubation, cell suspensions were immediately diluted with 3 fold larger volume of cold buffered DMEM to restore pH to a normal pH of 7.5.

[4] = 2 mM added to medium prior to EPT (20V/cm, 200 mA/cm^2)
Protocol: In order to determine the EPT induced oxidative stress in the extracellular media, TMB was employed, a colorless solution that transforms into blue when oxidized. TMB was added to the media before exposure to EPT. […] Light absorbance was measured using Tecan GENios plate reader at 450 nm. […] In order to moot this possibility, OS was examined in the three-compartment device, monitored by the color conversion of TMB.

Q: For `N#CC(C#N)=NNc1cccc(Cl)c1` [CCCP], which “extent of PIU of dextran-FITC compared to normal cells” value (HaCaT cells) is on record?
A: higher

Q: Which “effect on EPT induced uptake of dextran-FITC” value (COS 5-7 cells [1]) does the source give for `O=C1OC2C(O)COC23OC24OCC(O)C2OC(=O)C4(O)OC13O` (stereo not drawn) [DHA, Bis-Dehydroascorbic acid] here?
A: only a minor decrease

Q: And the “effect on EPT induced increase of DCF fluorescent intensity” value (COS 5-7 cells [2]; cells pre-loaded (1 mM, 90 minutes), 200 mA/cm^2)?
A: sufficient to abolish

Q: For `[Cl-].[Na+]` [NaCl], which “change in uptake when HCl is replaced by the same concentration of salt (osmolarity control)” value (COS 5-7 cells [3]) is on record?
A: no change in uptake was observed

Q: With `O=C(CCc1ccc(O)cc1)c1c(O)cc(O)cc1O` [Phloretin] as the molecule, how does the “extent of PIU of dextran-FITC compared to normal cells” value (HaCaT cells) read?
A: higher

Q: For `O=C1O[C@H]([C@@H](O)CO)C(O)=C1O.[Na]` [SAA, Sodium ascorbic acid], which “effect on EPT induced uptake of dextran-FITC” value (COS 5-7 cells [1]) is on record?
A: only a minor decrease

Q: And the “decline of intracellular OS (DCF fluorescence)” value (COS 5-7 cells [2]; 2 mM in external medium, 200 mA/cm^2, anode compartment)?
A: 66%

Q: What about the “effect on TMB oxidation during electric exposure” value [4] of the same molecule?
A: prevented its oxidation

Q: For `COC[C@@H]([C@H](O)[C@H](O)C(=O)NCC[C@H](C)c1nc(/C=C/C[C@@H]2O[C@]3(C[C@@H](O)[C@@H]2C)O[C@H]([C@H](C[C@H](O)[C@H](C)[C@H](O)[C@H](C)/C=C(C)/C(C)=C/C=C/C(C)=C\C#N)OC)[C@H](OP(=O)(O)O)C3(C)C)co1)N(C)C` [calyculin-A], which “effect of actin cytoskeleton modifier on rate of PIU of dextran-FITC” value (shortened to “effect of actin cytoskeleton modifier”) (HaCaT cells) is on record?
A: relatively minute impact on PIU increase

Q: Which “effect of actin cytoskeleton modifier” value (HaCaT cells) does the source give for `C=C1[C@@H](C)[C@H]2[C@H](Cc3ccccc3)NC(=O)[C@]23OC(=O)/C=C/[C@H](O)CCC[C@@H](C)C/C=C/[C@H]3[C@@H]1O` [cytochalasin-B] here?
A: doubled

Q: Which “effect of actin cytoskeleton modifier” value (HaCaT cells) does the source give for `C/C1=C/C(=O)O[C@@H]2C[C@@H](CC[C@H](C)/C=C\C=C\CC1)O[C@@](O)([C@@H]1CSC(=O)N1)C2` [latrunculin-A] here?
A: only small PIU enhancement

Q: For lucifer yellow, which “extent of PIU compared with fluorescein and dextran” value (HaCaT cells; pH 5.2 vs pH 7.4, 5 minutes, 25 μM) is on record?
A: lesser extent of PIU
